Source: patent publication US20170260169A1, “INHIBITORS FOR STEROID RESPONSE ELEMENTS AND RNA POLYMERASE II AND RELATED METHODS” (priority 2007, published 2017)
“Also recorded” adds a separate entry of the source. Like-named read-outs stand apart in the source and are kept apart here.

How the values were obtained:
LNCaP cells = assay: Cell viability WST-1 assay; format: cell-based; conditions: 72 hr incubation; read-out: half maximal inhibitory concentration, viability of LNCaP cells
Protocol: LNCaP cells were plated in clear bottom 96 well plates at 5,000-7,500 cells per well. The cells were allowed to adhere for 24-36 h before compounds were added in fresh media. Cell viability was determined by the WST-1 assay (Roche) for 77 and 85 after 24 h or 72 h incubation with cells. Cells in cytotoxicity rescue experiments were treated with 85 alone or with 3 μM for 24 h.
LNCaP cells were plated in clear bottom 96-well plates at 5,000-7,500 cells per well and allowed to adhere for 36-48 h. Compounds were then added in fresh media. Cell metabolic activity was determined by the WST-1 assay (Roche) after 72-h incubation with cells. Quantification was performed on a Perkin Elmer Victor 3 plate reader. Assays were performed in biological triplicates.

p53 target genes = assay: Quantitative RT-PCR of p53 target genes in LNCaP cells; format: cell-based
Protocol: RNA was extracted using RNEasy columns (Qiagen) according to manufacturer's protocols. cDNA was generated from RNA by reverse transcriptase (Transcriptor First Strand cDNA kit, Roche). Quantitative real-time RT-PCR was performed using SYBR Green PCR Master Mix (Applied Biosystems) on an ABI 7300 instrument. mRNA was measured relative to B glucuronidase as an endogenous control.
The cells were then treated with 1, 3, and 10 μM of 78 for 72 h. Total cellular RNA was extracted using RNEasy columns (Qiagen) following the manufacturer's protocols. Isolated RNA was reverse transcribed with Transcriptor First Strand cDNA kit (Roche). Quantitative real-time PCR was performed using SYBR Green PCR Master Mix (Applied Biosystems) on an ABI 7300 instrument. Amplification of p21, IGFBP3, and GADD45A cDNA was measured relative to β-glucuronidase using previously published primers (24). Experiments were performed in biological replicates.

LNCaP xenografts = LNCaP xenografts in male NSG mice; format: in vivo; conditions: six injections
Protocol: All mice experiments were conducted under an approved protocol by the Institutional Animal Care and Use Committee of the California Institute of Technology. Male NOD scid gamma (NSG) mice were purchased from The Jackson Laboratory. The animals were individually caged and maintained on a standard light-dark cycle. NSG mice were engrafted with LNCaP cells (2.5 million cells) in a mixture of 1:1 media and matrigel in the left flank. Tumors were grown to ˜100 mm^3 (L×W^2) before beginning treatment with compound or vehicle. Py-Im polyamide 77 was administered once every 3 days in a 5% DMSO:PBS vehicle solution until the experiment endpoint.
To investigate if polyamide 77 could be detected in peripheral blood after SC injections, 120 nmol of 77 (in 5% DMSO/PBS) was injected into the right flank of four C57BL/6 mice. Blood was collected from anesthetized mice via retroorbital collection at 5 minutes, 4 h, and 12 h after injection, then processed by methods previously described and analyzed by HPLC (35). For measurement of serum PSA (KLK3) and uric acid, blood was collected from anesthetized mice via retroorbital collection at experimental endpoint and serum was separated from blood by centrifugation. Serum PSA (KLK3) was measured by ELISA (R&D systems) according to manufacturer's instructions. Uric acid was measured as described (36).
Tumors were resected immediately after euthanasia and fixed in neutral buffered formalin. Selected samples were embedded in paraffin, sectioned and stained with hematoxylin and eosin (H&E). Selected sections were assessed by deoxynucleotidyltransferase dUTP nick-end labeling (TUNEL) as described (45).
Mice experiments were conducted under an approved protocol by the Institutional Animal Care and Use Committee of the California Institute of Technology. Male C57BL6/J mice and male NSG mice were purchased from The Jackson Laboratory. All animals were maintained on a standard light-dark cycle. LNCaP cells (2.5 million cells) were engrafted in a mixture of 1:1 media and matrigel in the left flank of NSG mice. Tumors were allowed grow to ˜200 mm^3 (0.5×L×W^2) before treatment. Py-Im polyamide 78 was administered by SC injection once every 3 d at 1 mg/kg in a 20% (vol/vol) DMSO:Normal saline vehicle solution for 6 injections. Animals were sacrificed two days after the final injection. Animal weight and general health were monitored daily. Fourteen animals were used for each treatment group.

[1] = Multiple-dose subcutaneous injections, male C57BL/6J mice; format: in vivo; conditions: 1 mg/kg SC every 3 days
Protocol: In addition to single dose injections, the effects of repeated dosing of polyamides 77-80 in mice were examined. In this experiment, 8 week-old male C57BL/6J mice (n=3 per dosing group) were treated with 1 mg/kg of polyamides 77-80 by subcutaneous injection every 3 days, for a cycle of three injections and then sacrificed two days after the final injection (FIG. 31A). As in the single dosing experiments, two mice per group were subjected to histopathology analysis and all blood samples were sent for analysis. […] These mice were promptly euthanized.
(§1) Serum from treated animals were collected by retroorbital bleeding. […] All samples were sent for analysis at IDEXX-RADIL.

RPB1 = RPB1 protein ELISA in LNCaP cells; format: cell-based
Protocol: […] Cells treated with DMSO vehicle and 1 μM doxorubicin for 24 h were used as control. Cellular RBP1 levels were determined by a RPB1 specific ELISA kit (Cusabio Life Sciences) according to manufacturer's instructions. Total cellular p53 protein level was determined with a pan-p53 ELISA kit (Roche) according to manufacturer's instructions. Assays were performed in biological triplicates.

[2] = Six-injection regimen of 78 in healthy male C57BL/6J mice, serum chemistry and hematology; format: in vivo; conditions: SC 1 mg/kg, six injections
Protocol: To assess the toxicity of the treatment regimen in healthy animals, male C57BL/6J mice were treated with an identical regimen as the tumor-bearing mice and were sacrificed two days after the final injection. Because the liver and kidney were identified as the target organs of toxicity in our previous study, we assessed relevant serum markers for liver and kidney pathology (FIG. 33D). […] To examine if 78 has an effect on circulating blood counts, whole blood was sampled before treatment and at the time of sacrifice.
as §1

p53 = p53 protein ELISA in LNCaP cells; format: cell-based; conditions: polyamide 10 μM 72 hr; doxorubicin 1 μM 24 hr
Protocol: Cellular levels of RPB1 and p53 protein in LNCaP cells after treatment with 10 μM 3 for 72 h were determined by ELISA. Cells treated with DMSO vehicle and 1 μM doxorubicin for 24 h were used as control. Cellular RBP1 levels were determined by a RPB1 specific ELISA kit (Cusabio Life Sciences) according to manufacturer's instructions. Total cellular p53 protein level was determined with a pan-p53 ELISA kit (Roche) according to manufacturer's instructions. Assays were performed in biological triplicates.

[3] = Liver microsomal stability, human; conditions: 1 μM, Human, 1 hr at 37° C., 1 mg/ml microsomes
Protocol: (§2) Briefly, each polyamide was incubated with 1 mg/ml human or mouse microsomes at 37° C. The reaction was incubated in 100 mM KH2PO4, 2 mM NADPH, 3 mM MgCl2 at pH 7.4. Samples were also incubated in the absence of NADPH to detect NADPH-free degradation. After 60 min the samples were mixed with an equal volume of ice cold methanol stop solution. The mixture was allowed to sit on ice for at least 10 min and mixed with an equal volume of water. The samples were then centrifuged to remove the precipitates and the samples were analyzed by LC/MS/MS. Data represents % remaining by comparing with time zero concentration. The experiments were performed in duplicate.

[4] = Liver microsomal stability, mouse; conditions: 1 μM, Mouse, 1 hr at 37° C., 1 mg/ml microsomes
Protocol: as §2

[5] = Escalating single dose subcutaneous injections, male C57BL/6J mice (weight, histopathology, serum)
[6] = human, microsomes, 1 h, 1 μM, pH 7.4
Protocol: as §2

[7] = mouse, microsomes, 1 h, 1 μM, pH 7.4
Protocol: as §2

CC(=O)N[C@H](CCNC(=O)c1cc(NC(=O)c2cc(NC(=O)c3cc(NC(=O)c4nccn4C)cn3C)cn2C)cn1C)C(=O)Nc1cn(C)c(C(=O)Nc2cc(C(=O)Nc3cc(C(=O)Nc4cc(C(=O)NCCCN(C)CCCNC(=O)c5cccc(C(=O)O)c5)n(C)c4)n(C)c3)n(C)c2)n1 [Polyamide 78, ImPyPyPy-2-(R)^AcHNγ-ImPyPyPy-NHMe-IPA]
IC50 (LNCaP cells): 2100 nM
induction of p53 target genes (p53 target genes): induced by 78 in a dose-dependent fashion
T/C (tumor weight) (LNCaP xenografts; SC 1 mg/kg every three days): 52.4%
weight loss and distress during xenograft treatment (LNCaP xenografts; SC 1 mg/kg): minimal weight loss and no signs of distress
liver and kidney histopathology [1]: no histopathologic lesions consistent with toxicity
liver and kidney serum markers [1]: no histopathologic lesions consistent with toxicity or alterations in liver and kidney serum markers
weight and physical morbidity ([1]; three injections): no loss in weight or physical morbidities
RPB1 levels (RPB1; 1 μM for 72 h as printed): reduced RPB1 levels
RPB1 protein (RPB1; polyamide 10 μM 72 hr, doxorubicin 1 μM 24 hr): decreases
circulating blood counts [2]: No significant hematologic changes
serum markers for liver and kidney pathology [2]: no elevations in AST, ALT, total bilirubin, creatinine, or BUN
cellular level of p53 protein (p53): increases
Mean remaining parent NADPH-free [3]: 94.9%
Mean remaining parent with NADPH [3]: 95.3%
Mean remaining parent NADPH-free [4]: 100%
Mean remaining parent with NADPH [4]: 97.3%
tolerability, behavior and morbidity after single SC dose ([5]; 1, 3, 10 mg/kg): no change in behavior and appearance
overall toxicity / organ damage ([5]; single SC 1, 3, 10 mg/kg): no detectable toxicity at any dose level tested; also recorded: no detectable animal toxicity at 10 mg/kg
serum kidney markers creatinine and BUN ([5]; single SC dose): no elevation of these markers at the dose levels tested
serum liver markers AST, ALT, total bilirubin ([5]; single SC dose): no elevation of these markers at the dose levels tested

CC(=O)CC(c1ccccc1)c1c(O)c2ccccc2oc1=O (stereo not drawn) [Warfarin]
Mean remaining parent NADPH-free [6]: 100%
Mean remaining parent with NADPH [6]: 100%
Mean remaining parent NADPH-free [7]: 100%
Mean remaining parent with NADPH [7]: 100%
